The subject of this experiment is Plasmodium berghei. Put plainly: Luciferase/luciferin-expressing antifolate-resistant parasites were used to infect a culture of HepG2 cells that were pre-incubated with compounds. Infected hepatocytes emit light due to the luciferase reaction. Assay results are presented as the percent inhibition of light emission compared to control. […]. Type of experiment: functional. To be noted: sporozoite; for IC90: read-out: LUCIFERASE INFECTION ASSAY - IC90.

The mark [1] stands for this setting: read-out: LUCIFERASE INFECTION ASSAY - IC50.

The IC50 is the concentration that inhibits the measured activity by half. As a reminder, the IC90 is the point of the concentration-response curve where the effect stands at 90%. As to `COCCOc1ccc(C(F)(F)F)cc1NC(=O)Nc1ccc(Cl)c(Cl)c1`, the IC90 stood at 6.68 µM. Moreover, the IC50 (PBLUC_HILL_SLOPE 3.42, PBLUC_R_SQUARED 0.295, read-out: LUCIFERASE INFECTION ASSAY - IC50) was found to be 3.52 µM.
With `COc1ccc(N2C(=O)c3ccccc3C(C=NNC(=O)c3ccc(C)cc3)C2=O)cc1OC` (stereo not given), the IC90 worked out at 5.03 µM. Besides, the IC50 (HEPG2TOX_HILL_SLOPE 8.3, HEPG2TOX_R_SQUARED 0.704, PBLUC_HILL_SLOPE 7.2, PBLUC_R_SQUARED 0.273, read-out: LUCIFERASE INFECTION ASSAY - IC50) came to 3.7 µM.
Regarding `CC(C)(C)c1ccc(NC(=O)Cc2csc(NC(=O)C3CC3)n2)cc1`, the IC90 was greater than 10 µM. Further, the IC50 under setting [1] was greater than 10 µM.
For the molecule `CC(C)Oc1cccc(-c2cn3c(-c4ccc(C(=O)NC5CC5)cc4)cnc3cn2)c1`, the IC90 stood at 7.18 µM. Moreover, for the setting “PBLUC_HILL_SLOPE 5.31, PBLUC_R_SQUARED 0.43, read-out: LUCIFERASE INFECTION ASSAY - IC50”, the IC50 is 4.75 µM.
Regarding `COc1cccc(-c2cn3c(-c4ccc5c(ccn5C)c4)cnc3cn2)c1F`, the IC90 is 0.145 µM. For the same molecule, the IC50 (HEPG2TOX_HILL_SLOPE 1.41, HEPG2TOX_R_SQUARED 0.854, PBLUC_HILL_SLOPE 2.39, PBLUC_R_SQUARED 0.955, read-out: LUCIFERASE INFECTION ASSAY - IC50) was 0.0579 µM.
With `CC(C)Cc1nc(N2CCN(C(=O)c3ccco3)CC2)c(C#N)c2c1CCCC2`, the IC90 was determined as 3.93 µM. Also, the IC50 under setting [1] came out at 3.18 µM.
The corresponding values for `Cc1cc(-c2csc(Nc3ccccn3)n2)c(C)n1-c1nccs1` are greater than 10 µM and greater than 10 µM.
Take `CCCCCN1C(=O)/C(=N\n2c(-c3ccc(Cl)c(Cl)c3)cs/c2=N\c2cccc(C)c2C)c2ccccc21`: the 90% effect concentration (IC90) was greater than 10 µM. Moreover, the IC50 (FFLUC_HILL_SLOPE 0.963, FFLUC_R_SQUARED 0.82, HEPG2TOX_HILL_SLOPE 0.0725, HEPG2TOX_R_SQUARED 0.0443, PBLUC_HILL_SLOPE 3.87, PBLUC_R_SQUARED 0.467, read-out: LUCIFERASE INFECTION ASSAY - IC50) stood at 6.02 µM.
For `CCc1c2c(nc3sc(C(=O)Nc4nsc(-c5ccccc5)n4)c(N)c13)CC(C)(C)CC2=O`, the IC90 is greater than 10 µM. In addition, the IC50 (PBLUC_HILL_SLOPE 1.15, PBLUC_R_SQUARED 0.361, read-out: LUCIFERASE INFECTION ASSAY - IC50) came to 6.36 µM.
With `CC(C)(C)c1csc(NC(=O)Nc2ccc(Cl)cc2)n1`, the IC90 was greater than 10.7 µM. For the setting “HEPG2TOX_HILL_SLOPE 9.42, HEPG2TOX_R_SQUARED 0.969, PBLUC_HILL_SLOPE 14.5, PBLUC_R_SQUARED 0.489, read-out: LUCIFERASE INFECTION ASSAY - IC50”, the half-maximal inhibitory concentration (IC50) came out at 9.21 µM.
As for `COc1cc(-c2nccc3n[nH]c(-c4cccc(OC(F)(F)F)c4)c23)cc(OC)c1OC`, the IC90 is greater than 10 µM. The concentration for half-maximal inhibition (IC50) under setting [1] is greater than 10 µM.
On to `Cc1cc(SCC(=O)NC(C)C2CC3CCC2C3)n2c(nc3ccccc32)c1C#N` (stereo not given), for which the IC90 was determined as 3.54 µM. For the same molecule, the IC50 (HEPG2TOX_HILL_SLOPE 6.37, HEPG2TOX_R_SQUARED 0.94, PBLUC_HILL_SLOPE 33.9, PBLUC_R_SQUARED 0.41, read-out: LUCIFERASE INFECTION ASSAY - IC50) came to 3.32 µM.
As to `C=CCNC(=O)NC(=O)CSc1nnc(-c2ccc(OC)cc2)n1-c1cccc(C(F)(F)F)c1`, the IC90 was 6.91 µM. The 50% inhibitory concentration (IC50) (HEPG2TOX_HILL_SLOPE 2.39, HEPG2TOX_R_SQUARED 0.903, PBLUC_HILL_SLOPE 3.60, 2.97, PBLUC_R_SQUARED 0.951, 0.459, read-out: LUCIFERASE INFECTION ASSAY - IC50) was found to be 3.56 µM.
As for `O=C(Nc1cc(C(F)(F)F)cc(C(F)(F)F)c1)Nc1cnn(-c2ccc([N+](=O)[O-])cc2)c1C(F)(F)F`, the IC90 came out at 3.21 µM. The IC50 (PBLUC_HILL_SLOPE 8.84, PBLUC_R_SQUARED 0.29, read-out: LUCIFERASE INFECTION ASSAY - IC50) is 2.5 µM.
Consider `CC(C)(CNC(=O)Nc1ccccc1)SCc1ccc(Cl)cc1`, for which the IC90 is greater than 9.46 µM. In addition, the IC50 (PBLUC_HILL_SLOPE 4.79, PBLUC_R_SQUARED 0.408, read-out: LUCIFERASE INFECTION ASSAY - IC50) stood at 6.73 µM.
Take `O=c1nc(Nc2ccc(Cl)cc2)[nH]nc1Cc1ccc(Cl)cc1`: the IC90 was found to be 5.05 µM. Also, the IC50 (PBLUC_HILL_SLOPE 2.36, PBLUC_R_SQUARED 0.336, read-out: LUCIFERASE INFECTION ASSAY - IC50) was found to be 1.99 µM.
For `CC1CC1c1ccc(/C=C2\C(=O)Nc3cc(Cl)ccc32)o1` (stereo not given), the IC90 was greater than 10 µM. Also, the IC50 (HEPG2TOX_HILL_SLOPE 10.3, HEPG2TOX_R_SQUARED 0.792, PBLUC_HILL_SLOPE 17.7, PBLUC_R_SQUARED 0.192, read-out: LUCIFERASE INFECTION ASSAY - IC50) is 9.66 µM.
With `O=C(Nc1ccc(OC(F)(F)F)cc1)Nc1ccc(Sc2ccc(Cl)cc2)nc1`, the IC90 was greater than 7.5 µM. Where the note is “HEPG2TOX_HILL_SLOPE 6.6, HEPG2TOX_R_SQUARED 0.793, PBLUC_HILL_SLOPE 3.54, PBLUC_R_SQUARED 0.066, read-out: LUCIFERASE INFECTION ASSAY - IC50”, the IC50 was found to be 6.05 µM.
Turning to `CCn1c2ccccc2c2cc(/C=C3\SC(=S)N(CCCN(C)C)C3=O)ccc21`, the IC90 is greater than 10 µM. Also, under setting [1], the IC50 is greater than 10 µM.
Consider `CSCC[C@H](NC(=O)CCN(c1cc(C)cc(C)c1)S(=O)(=O)c1ccc(Cl)cc1)c1nc2ccccc2[nH]1`, for which the IC90 was greater than 10 µM. In addition, the IC50 (HEPG2TOX_HILL_SLOPE 1.18, HEPG2TOX_R_SQUARED 0.616, PBLUC_HILL_SLOPE 8.87, PBLUC_R_SQUARED 0.619, read-out: LUCIFERASE INFECTION ASSAY - IC50) stood at 8.36 µM.
In the case of `N#Cc1ccc(C(=O)Nc2cccc(Oc3ccccc3)c2)cc1`, the IC90 was greater than 10 µM. Further, the IC50 (PBLUC_HILL_SLOPE 3.19, PBLUC_R_SQUARED 0.12, read-out: LUCIFERASE INFECTION ASSAY - IC50) came to 6.33 µM.
With `COc1cc2c(cc1OC)C1(NCC2)C(=O)Nc2ccccc21` (stereo not given), the concentration for an effect of 90% (IC90) is greater than 10 µM. For the same molecule, the IC50 under setting [1] was greater than 10 µM.
Regarding `COCCCNc1nccc2nc(-c3cccc(C(C)C)c3)[nH]c12`, the IC90 was greater than 10 µM. Moreover, the IC50 (HEPG2TOX_HILL_SLOPE 0.453, HEPG2TOX_R_SQUARED 0.728, PBLUC_HILL_SLOPE 2.13, PBLUC_R_SQUARED 0.522, read-out: LUCIFERASE INFECTION ASSAY - IC50) was 4.47 µM.
In the case of `COc1ccccc1-c1cc2c(Nc3ccc(OC(F)(F)F)cc3)nccc2n1C`, the IC90 turned out to be 8.42 µM. Moreover, the IC50 (FFLUC_HILL_SLOPE 12.5, FFLUC_R_SQUARED 0.343, HEPG2TOX_HILL_SLOPE 2.16, HEPG2TOX_R_SQUARED 0.708, PBLUC_HILL_SLOPE 2.92, PBLUC_R_SQUARED 0.46, read-out: LUCIFERASE INFECTION ASSAY - IC50) was 3.97 µM.
Take `COc1ccccc1-c1cc(NC(C)=O)c2ncc(-c3cc(OC)c(OC)c(OC)c3)n2c1`: the IC90 was determined as 2.96 µM. In addition, for the setting “HEPG2TOX_HILL_SLOPE 2.18, HEPG2TOX_R_SQUARED 0.547, PBLUC_HILL_SLOPE 12.3, PBLUC_R_SQUARED 0.226, read-out: LUCIFERASE INFECTION ASSAY - IC50”, the IC50 came out at 2.47 µM.
Turning to `O=C(Nc1nc2ccccc2[nH]1)c1ccc(Cl)c(S(=O)(=O)N2CCc3ccccc32)c1`, the IC90 was greater than 10 µM. Also, the IC50 (HEPG2TOX_HILL_SLOPE 9.78, HEPG2TOX_R_SQUARED 0.833, PBLUC_HILL_SLOPE 14, PBLUC_R_SQUARED 0.17, read-out: LUCIFERASE INFECTION ASSAY - IC50) is 8.7 µM.
Take `CC(c1nc(N)nc(N(C)C)n1)N1CCN(C(c2ccc(F)cc2)c2ccc(F)cc2)CC1` (stereo not given): the IC90 came out at 3.79 µM. For the same molecule, the IC50 (PBLUC_HILL_SLOPE 16.2, PBLUC_R_SQUARED 0.638, read-out: LUCIFERASE INFECTION ASSAY - IC50) is 3.31 µM.
Turning to `COc1ccc(Nc2nccc3[nH]c(-c4ccsc4)cc23)cc1OC`, the IC90 stood at 7.38 µM. For the same molecule, where the note is “HEPG2TOX_HILL_SLOPE 8.96, HEPG2TOX_R_SQUARED 0.789, PBLUC_HILL_SLOPE 2.87, PBLUC_R_SQUARED 0.796, read-out: LUCIFERASE INFECTION ASSAY - IC50”, the IC50 worked out at 3.43 µM.
With `O=C(N/N=C/C1=C(N2CCOCC2)C(=C\c2ccccc2)/CC1)c1ccco1`, the IC90 was 3.47 µM. For the same molecule, under setting [1], the IC50 amounted to 2.96 µM.
In the case of `CC(C)(C)c1csc(-c2ccc(-n3cncn3)nc2)n1`, the IC90 was greater than 11.6 µM. Moreover, for the setting “HEPG2TOX_HILL_SLOPE 9.36, HEPG2TOX_R_SQUARED 0.478, read-out: LUCIFERASE INFECTION ASSAY - IC50”, the IC50 was greater than 11.6 µM.
In the case of `CCc1cccc2c(C3=CCN(c4ncccn4)CC3)c[nH]c12`, the 90% effect concentration (IC90) was greater than 10 µM. The IC50 under setting [1] was greater than 10 µM.
`O=C(NNC(=S)Nc1ccc(Cl)c(Cl)c1)c1cccn1-c1ccc(F)cc1`: the 90% effect concentration (IC90) worked out at 5.78 µM. Besides, the 50% inhibitory concentration (IC50) (FFLUC_HILL_SLOPE 12.7, FFLUC_R_SQUARED 0.0579, HEPG2TOX_HILL_SLOPE 1.8, HEPG2TOX_R_SQUARED 0.871, PBLUC_HILL_SLOPE 2.85, PBLUC_R_SQUARED 0.299, read-out: LUCIFERASE INFECTION ASSAY - IC50) amounted to 2.67 µM.
In the case of `COC(=O)c1ccc2c(=O)n(-c3ccccc3)c(SCC3CCCCO3)nc2c1` (stereo not given), the IC90 was greater than 10 µM. The IC50 under setting [1] was greater than 10 µM.
In the case of `O=C(CCN1CCN(C(c2ccccc2)c2ccccc2)CC1)NNC(=O)c1ccc(I)cc1`, the IC90 is greater than 10 µM. Further, the IC50 under setting [1] is greater than 10 µM.
On to `Cc1ccc(C(C)C)c(OCc2nnnn2-c2ccc(Br)cc2)c1`, for which the 90% effect concentration (IC90) is greater than 8.52 µM. In addition, the IC50 under setting [1] was 4.96 µM.

The record behind these values is ChEMBL document CHEMBL4483862, “Open-source discovery of chemical leads for next-generation chemoprotective antimalarials” (2018).
